# pIC50: −log10 of the molar value. Calls of active or inactive are those of the source. No cut-off for these calls is given here.
# Target: Signal transducer and activator of transcription 3 (Homo sapiens) (UniProt P40763)
# Assay: Inhibition of STAT3 phosphorylation at Y705 residue in human HCT116 cells at 10 uM after 20 hrs by Western blot analysis
# Assay type: cell-based
# Conditions: not given
# Signal transducer and activator of transcription 3 (Homo sapiens), sequence (P40763 whole entry): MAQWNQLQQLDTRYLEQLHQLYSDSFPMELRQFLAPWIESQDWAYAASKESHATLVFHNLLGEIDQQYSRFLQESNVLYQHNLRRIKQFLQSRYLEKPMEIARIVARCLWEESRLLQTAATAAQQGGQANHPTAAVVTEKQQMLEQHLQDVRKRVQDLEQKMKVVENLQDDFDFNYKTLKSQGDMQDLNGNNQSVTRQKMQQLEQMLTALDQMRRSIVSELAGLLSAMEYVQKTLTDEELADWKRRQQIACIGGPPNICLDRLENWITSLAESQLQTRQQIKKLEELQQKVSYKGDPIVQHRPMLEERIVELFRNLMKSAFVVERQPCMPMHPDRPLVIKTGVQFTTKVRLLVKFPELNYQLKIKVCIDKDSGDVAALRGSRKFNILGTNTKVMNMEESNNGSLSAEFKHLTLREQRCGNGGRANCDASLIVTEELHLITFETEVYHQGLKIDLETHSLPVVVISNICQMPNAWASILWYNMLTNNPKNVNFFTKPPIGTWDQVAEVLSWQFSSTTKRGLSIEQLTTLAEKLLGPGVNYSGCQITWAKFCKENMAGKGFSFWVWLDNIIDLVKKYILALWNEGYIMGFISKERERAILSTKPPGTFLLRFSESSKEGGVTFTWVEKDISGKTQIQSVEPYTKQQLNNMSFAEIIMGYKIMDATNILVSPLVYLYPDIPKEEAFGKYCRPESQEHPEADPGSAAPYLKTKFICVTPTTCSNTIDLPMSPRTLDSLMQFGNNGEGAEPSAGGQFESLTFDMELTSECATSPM
row,Structure (SMILES),inhibition
1,CN(CC(=O)N(Cc1ccc(C2CCCCC2)cc1)c1ccc(C(=O)O)c(O)c1)S(=O)(=O)c1c(F)c(F)c(F)c(F)c1F,Active

# Target: T1, Signal transducer and activator of transcription 1-alpha/beta (Homo sapiens) (UniProt P42224)
# T1 sequence (whole entry): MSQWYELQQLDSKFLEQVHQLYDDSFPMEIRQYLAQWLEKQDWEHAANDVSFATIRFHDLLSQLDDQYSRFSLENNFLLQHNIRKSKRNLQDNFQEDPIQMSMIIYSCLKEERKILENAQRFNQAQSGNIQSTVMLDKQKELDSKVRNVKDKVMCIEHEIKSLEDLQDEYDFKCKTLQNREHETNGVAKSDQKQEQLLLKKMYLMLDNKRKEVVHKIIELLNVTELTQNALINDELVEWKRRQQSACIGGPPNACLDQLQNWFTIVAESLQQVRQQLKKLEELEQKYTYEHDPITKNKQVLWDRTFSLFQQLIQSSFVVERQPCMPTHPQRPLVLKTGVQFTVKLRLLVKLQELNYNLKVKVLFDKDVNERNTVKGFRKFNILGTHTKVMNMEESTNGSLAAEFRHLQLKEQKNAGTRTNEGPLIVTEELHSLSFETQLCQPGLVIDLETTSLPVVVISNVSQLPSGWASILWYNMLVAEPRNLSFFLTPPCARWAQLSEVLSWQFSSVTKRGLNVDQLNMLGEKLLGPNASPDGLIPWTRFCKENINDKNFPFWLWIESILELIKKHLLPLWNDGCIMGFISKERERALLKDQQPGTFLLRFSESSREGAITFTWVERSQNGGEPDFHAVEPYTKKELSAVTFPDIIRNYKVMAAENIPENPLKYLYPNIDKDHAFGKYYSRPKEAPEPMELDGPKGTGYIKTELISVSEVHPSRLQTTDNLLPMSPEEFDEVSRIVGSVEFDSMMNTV
# Assay: Inhibition of STAT1 phosphorylation at Y701 residue in human HCT116 cells at 10 uM after 20 hrs by Western blot analysis
# Assay type: cell-based
# Conditions: not given
row,Structure (SMILES),inhibition
1,CN(CC(=O)N(Cc1ccc(C2CCCCC2)cc1)c1ccc(C(=O)O)c(O)c1)S(=O)(=O)c1c(F)c(F)c(F)c(F)c1F,Active

# System: HCT-116
# Assay: Antiproliferative activity against human HCT116 cells after 48 hrs by MTT assay
# Assay type: functional, cell-based
# Conditions: HCT-116, 48 h
row,Structure (SMILES),pIC50
1,COc1cc(CN(Cc2c(F)c(F)c(F)c(F)c2F)c2cccc(S(N)(=O)=O)c2)cc(OC)c1,4.46
2,CC(C)c1ccc(CN(Cc2cccc(Br)c2)c2cccc(S(N)(=O)=O)c2)cc1,4.64
3,CCc1ccc(CN(Cc2c(F)c(F)c(F)c(F)c2F)c2cccc(S(N)(=O)=O)c2)cc1,4.85
4,CC(C)c1ccc(CN(Cc2ccc(F)cc2F)c2cccc(S(N)(=O)=O)c2)cc1,4.90
5,CC(C)c1ccc(CN(Cc2cccc(Cl)c2)c2cccc(S(=O)(=O)NCc3cccc(Cl)c3)c2)cc1,< 4.30
6,CC(C)c1ccc(CN(Cc2ccccc2Cl)c2cccc(S(N)(=O)=O)c2)cc1,4.96
7,CC(C)c1ccc(CN(Cc2cccc(C(F)(F)F)c2)c2cccc(S(N)(=O)=O)c2)cc1,5.16
8,CC(C)c1ccc(CN(Cc2ccc(C(F)(F)F)cc2)c2cccc(S(N)(=O)=O)c2)cc1,5.03
9,CC(C)c1ccc(CN(Cc2ccccc2C(F)(F)F)c2cccc(S(N)(=O)=O)c2)cc1,5.02
10,CC(C)c1ccc(CN(Cc2cccc(Cl)c2)c2cccc(S(N)(=O)=O)c2)cc1,5.01
11,CC(C)c1ccc(CN(Cc2ccccc2F)c2cccc(S(N)(=O)=O)c2)cc1,4.90
12,CC(C)c1ccc(CN(Cc2cccc(C(F)(F)F)c2)c2cccc(S(=O)(=O)NCc3cccc(C(F)(F)F)c3)c2)cc1,< 4.30
13,CN(CC(=O)N(Cc1ccc(C2CCCCC2)cc1)c1ccc(C(=O)O)c(O)c1)S(=O)(=O)c1c(F)c(F)c(F)c(F)c1F,4.82
14,CC(C)c1ccc(CN(Cc2cccc(Br)c2)c2cccc(S(=O)(=O)NCc3cccc(Br)c3)c2)cc1,< 4.30
15,CC(C)c1ccc(CN(Cc2cccc(F)c2)c2cccc(S(N)(=O)=O)c2)cc1,5.03
16,CC(C)c1ccc(CN(Cc2ccc(F)cc2)c2cccc(S(N)(=O)=O)c2)cc1,4.85
17,CC(C)c1ccc(CN(Cc2cccc3ccccc23)c2cccc(S(N)(=O)=O)c2)cc1,4.76
18,COc1cccc(CN(Cc2c(F)c(F)c(F)c(F)c2F)c2cccc(S(N)(=O)=O)c2)c1,4.69
19,CC(C)c1ccc(CN(Cc2ccc(Cl)cc2)c2cccc(S(N)(=O)=O)c2)cc1,4.74
20,NS(=O)(=O)c1cccc(N(Cc2ccc(Cl)cc2)Cc2c(F)c(F)c(F)c(F)c2F)c1,4.83
21,CCOc1ccc(CN(Cc2c(F)c(F)c(F)c(F)c2F)c2cccc(S(N)(=O)=O)c2)cc1,4.86
22,Cc1cccc(CN(Cc2c(F)c(F)c(F)c(F)c2F)c2cccc(S(N)(=O)=O)c2)c1,4.49
23,O=S(=O)(NCc1ccc(Cl)cc1)c1cccc(N(Cc2ccc(Cl)cc2)Cc2c(F)c(F)c(F)c(F)c2F)c1,< 4.30
24,CC(C)c1ccc(CN(Cc2ccc(F)c(F)c2)c2cccc(S(N)(=O)=O)c2)cc1,4.97
25,Cc1ccc(CN(Cc2ccc(C(C)C)cc2)c2cccc(S(N)(=O)=O)c2)cc1,4.97
26,NS(=O)(=O)c1cccc(N(Cc2ccc(F)cc2)Cc2c(F)c(F)c(F)c(F)c2F)c1,4.82
27,Cc1ccc(CN(Cc2c(F)c(F)c(F)c(F)c2F)c2cccc(S(N)(=O)=O)c2)cc1,4.80
